10 compounds from patent US7550451B2, “Progesterone receptor modulators with increased antigonadotropic activity for female birth control and hormone replacement therapy” (Bayer Schering Pharma AG, priority 2002, dated 2009) can be followed below.

One test has as its target T1, Androgen receptor (Rattus norvegicus, UniProt P15207).
T1 construct: Prostate cytosol of the castrated rat; from tissue; host or cells: prostate cytosol of castrated rat
T1 sequence (P15207 1-902): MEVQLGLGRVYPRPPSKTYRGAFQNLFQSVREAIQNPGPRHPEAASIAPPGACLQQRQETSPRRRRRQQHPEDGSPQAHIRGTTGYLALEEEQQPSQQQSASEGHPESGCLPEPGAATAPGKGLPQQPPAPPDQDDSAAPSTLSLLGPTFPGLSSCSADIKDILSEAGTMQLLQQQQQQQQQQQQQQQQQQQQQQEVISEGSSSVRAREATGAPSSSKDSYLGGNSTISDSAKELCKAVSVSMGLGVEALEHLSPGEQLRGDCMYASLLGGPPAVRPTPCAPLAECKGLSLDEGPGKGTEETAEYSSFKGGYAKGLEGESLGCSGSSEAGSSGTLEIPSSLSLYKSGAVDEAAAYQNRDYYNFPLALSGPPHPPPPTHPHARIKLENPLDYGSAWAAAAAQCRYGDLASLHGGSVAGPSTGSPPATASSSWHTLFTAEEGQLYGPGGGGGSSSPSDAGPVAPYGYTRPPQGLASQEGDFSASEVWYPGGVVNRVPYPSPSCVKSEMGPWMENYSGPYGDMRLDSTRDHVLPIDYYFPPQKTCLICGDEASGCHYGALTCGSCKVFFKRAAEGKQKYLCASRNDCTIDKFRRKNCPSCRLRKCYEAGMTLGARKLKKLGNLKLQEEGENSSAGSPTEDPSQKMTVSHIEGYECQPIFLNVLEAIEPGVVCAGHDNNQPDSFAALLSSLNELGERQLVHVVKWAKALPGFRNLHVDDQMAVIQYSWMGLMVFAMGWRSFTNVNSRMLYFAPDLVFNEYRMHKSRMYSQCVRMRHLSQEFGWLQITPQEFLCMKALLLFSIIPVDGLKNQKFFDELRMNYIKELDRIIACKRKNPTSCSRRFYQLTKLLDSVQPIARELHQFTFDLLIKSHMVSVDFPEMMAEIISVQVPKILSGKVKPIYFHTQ
In words: Receptor binding affinity, androgen receptor (competitive binding, 3H-metribolone). The following applies: prostate cytosol of castrated rat; for AR relative molar binding affinity (RBA) a) against RU 1881: reference RU 1881 (metribolone); for AR relative molar binding affinity (RBA) b) against dihydrotestosterone (DHT): reference dihydrotestosterone. How it is done: (§1) The receptor binding affinity was determined by competitive binding of a specifically binding ^3H-labeled hormone (tracer) and the compound to be tested on receptors in the cytosol from animal target organs. In this case, receptor saturation and reaction equilibrium were sought.
(§2) The tracers and increasing concentrations of the compound to be tested (competitor) were co-incubated with the receptor-containing cytosol fraction at 0-4° C. over 18 hours. After separation of the unbonded tracer with carbon-dextran suspension, the receptor-bonded tracer portion was measured for each concentration, and the IC50 was determined from the concentration sequence. As a quotient of the IC50 values of the reference substance and the compound to be tested (×100%), the relative molar binding affinity (RBA) was calculated (RBA of the reference substance=100%).
Prostate cytosol of the castrated rat; prostates stored at −30° C.; buffer: TED with 10% glycerol as well as 2 μmol of triamcinolone acetonide. Tracer: ^3H-metribolone 4 nmol; reference substances: metribolone (RU 1881) or 5α-dihydrotestosterone.

The target of another test is T2, Progesterone receptor (Oryctolagus cuniculus, UniProt P06186).
T2 construct: Uterus cytosol of the estradiol-primed rabbit; from tissue; host or cells: uterus cytosol of estradiol-primed rabbit
T2 sequence (P06186 1-930): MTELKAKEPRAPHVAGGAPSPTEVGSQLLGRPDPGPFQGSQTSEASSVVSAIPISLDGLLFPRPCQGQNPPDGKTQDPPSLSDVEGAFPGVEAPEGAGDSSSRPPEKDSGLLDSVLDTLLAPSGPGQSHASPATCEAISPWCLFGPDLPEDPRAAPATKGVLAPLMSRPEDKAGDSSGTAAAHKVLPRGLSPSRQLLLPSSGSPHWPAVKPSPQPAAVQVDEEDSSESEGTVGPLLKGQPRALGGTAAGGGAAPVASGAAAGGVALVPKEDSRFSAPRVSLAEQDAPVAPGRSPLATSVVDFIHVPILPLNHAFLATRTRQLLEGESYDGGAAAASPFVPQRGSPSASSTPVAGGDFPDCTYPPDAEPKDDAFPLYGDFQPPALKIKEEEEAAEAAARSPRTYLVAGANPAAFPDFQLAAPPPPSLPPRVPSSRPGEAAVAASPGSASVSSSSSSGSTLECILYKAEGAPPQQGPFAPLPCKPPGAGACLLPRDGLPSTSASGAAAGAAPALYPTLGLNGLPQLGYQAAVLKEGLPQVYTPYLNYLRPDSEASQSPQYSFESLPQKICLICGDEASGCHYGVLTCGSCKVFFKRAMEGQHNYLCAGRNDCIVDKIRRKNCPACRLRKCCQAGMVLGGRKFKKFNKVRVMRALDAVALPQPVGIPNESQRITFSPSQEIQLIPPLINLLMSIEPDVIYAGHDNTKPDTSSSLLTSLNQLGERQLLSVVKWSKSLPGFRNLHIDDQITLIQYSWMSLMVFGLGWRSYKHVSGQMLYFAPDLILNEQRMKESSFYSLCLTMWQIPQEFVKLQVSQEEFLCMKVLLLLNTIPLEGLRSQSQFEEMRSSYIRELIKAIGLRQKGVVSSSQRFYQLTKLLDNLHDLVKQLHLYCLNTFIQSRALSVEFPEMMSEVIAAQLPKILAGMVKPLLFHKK
The experiment in a line: Receptor binding affinity, progesterone receptor (competitive binding, 3H-ORG 2058). The settings on record: Progesterone = 100%; uterus cytosol of estradiol-primed rabbit. Here is the method:
as §1, §2
Uterus cytosol of the estradiol-primed rabbit; homogenized in TED buffer (20 mmol of Tris/HCl, pH 7.4; 1 mmol of ethylenediamine tetraacetate, 2 mmol of dithiothreitol) with 250 mmol of saccharose; stored at −30° C. Tracer: ^3H-ORG 2058, 5 nmol; reference substance: progesterone.

In a further test the target is T3, Glucocorticoid receptor (Rattus norvegicus, UniProt P06536).
T3 construct: Thymus cytosol of the adrenalectomized rat; from tissue; host or cells: thymus cytosol of adrenalectomized rat
T3 sequence (P06536 1-795): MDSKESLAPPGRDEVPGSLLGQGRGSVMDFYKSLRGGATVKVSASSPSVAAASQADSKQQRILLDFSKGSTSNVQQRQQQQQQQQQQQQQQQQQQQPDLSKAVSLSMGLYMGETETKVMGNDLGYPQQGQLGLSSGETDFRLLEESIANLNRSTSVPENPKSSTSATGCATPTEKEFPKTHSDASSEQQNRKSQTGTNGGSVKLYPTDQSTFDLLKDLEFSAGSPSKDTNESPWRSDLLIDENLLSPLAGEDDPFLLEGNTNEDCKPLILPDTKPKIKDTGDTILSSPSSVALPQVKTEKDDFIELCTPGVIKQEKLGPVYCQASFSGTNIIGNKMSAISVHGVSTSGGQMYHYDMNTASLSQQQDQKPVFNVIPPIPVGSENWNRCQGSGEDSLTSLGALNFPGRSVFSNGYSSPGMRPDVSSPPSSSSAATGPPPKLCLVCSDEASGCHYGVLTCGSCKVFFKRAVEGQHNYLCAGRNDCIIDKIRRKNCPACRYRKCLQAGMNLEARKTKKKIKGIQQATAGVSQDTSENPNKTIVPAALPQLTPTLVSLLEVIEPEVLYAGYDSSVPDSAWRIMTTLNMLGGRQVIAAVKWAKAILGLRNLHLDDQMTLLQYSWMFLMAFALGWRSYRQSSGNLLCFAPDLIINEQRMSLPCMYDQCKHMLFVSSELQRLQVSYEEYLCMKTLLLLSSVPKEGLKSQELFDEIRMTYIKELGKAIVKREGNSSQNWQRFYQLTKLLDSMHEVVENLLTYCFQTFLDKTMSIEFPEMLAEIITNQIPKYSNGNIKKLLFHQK
The experiment in a line: Receptor binding affinity, glucocorticoid receptor (competitive binding, 3H-dexamethasone). The settings on record: Dexamethasone = 100%; thymus cytosol of adrenalectomized rat. Here is the method:
as §1, §2
Thymus cytosol of the adrenalectomized rat, thymi stored at −30° C.; buffer: TED. Tracer: ^3H-Dexamethasone, 20 nmol; reference substance: dexamethasone.

Take “4-(4′-Bromo-17β-methoxy-3-oxoestra-4,9-dien-11β-yl)benzaldehyde-1(E)-oxime [Example 7]”: on Androgen receptor, the “AR relative molar binding affinity (RBA) a) against RU 1881” value is “a) 8.7%” and the “AR relative molar binding affinity (RBA) b) against dihydrotestosterone (DHT)” value (from here on “AR relative molar binding affinity … (DHT)”) was “b) 13.2%”. The “PR relative molar binding affinity (RBA)” value on Progesterone receptor worked out at 110%. Moreover, the “GR relative molar binding affinity (RBA)” value at Glucocorticoid receptor is reported as 0.69%.
Consider `CC(=O)OC1CCC2C3CCC4=CC(=O)CCC4=C3C(c3ccc(C=NO)cc3)CC12C` (stereo not drawn) [Example 3, 4-(17β-Acetoxy-3-oxoestra-4,9-dien-11β-yl)benzaldehyde-1-(E)-oxime], for which the “PR relative molar binding affinity (RBA)” value on Progesterone receptor is given as 20%. The “GR relative molar binding affinity (RBA)” value at Glucocorticoid receptor was 12%.
Regarding `CCNC(=O)O[C@H]1CC[C@H]2[C@@H]3CCC4=CC(=O)CCC4=C3[C@@H](c3ccc(/C=N/O)cc3)C[C@]12C` [Example 4, 4-[17β-(N-Ethylamino)carbonyloxy-3-oxoestra-4,9-dien-11β-yl]benzaldehyde-1(E)-oxime], at Androgen receptor, the “AR relative molar binding affinity (RBA) a) against RU 1881” value is recorded as “a) 2.9%” and the “AR relative molar binding affinity … (DHT)” value is on record as “b) 4.5%”. Further, the “PR relative molar binding affinity (RBA)” value on Progesterone receptor was found to be 13%. In addition, on Glucocorticoid receptor, the “GR relative molar binding affinity (RBA)” value was determined as 11%.
The corresponding values for `CC12CC(c3ccc(C=NO)cc3)C3=C4CCC(=O)C(Br)=C4CCC3C1CCC2(O)C(F)(F)F` (stereo not drawn) [Example 8, 4-(4′-Bromo-17β-hydroxy-17α-trifluoromethyl-3-oxoestra-4,9-dien-11β-yl)benzaldehyde-1(E)-oxime] are “a) 7.8%”, “b) 11.8%”, 87% and 1.8%.
Regarding `CCNC(=O)O/N=C/c1ccc([C@H]2C[C@@]3(C)[C@@H](CC[C@]3(C)O)[C@@H]3CCC4=CC(=O)CCC4=C32)cc1` [Example 9, 4-[17β-Hydroxy-17α-methyl-3-oxoestra-4,9-dien-11β-yl]benzaldehyde-1-(E)-[O-(ethylamino)-carbonyl]oxime], at Androgen receptor, the “AR relative molar binding affinity (RBA) a) against RU 1881” value was “a) 15%” and the “AR relative molar binding affinity … (DHT)” value is on record as “b) 23%”. Besides, the “PR relative molar binding affinity (RBA)” value on Progesterone receptor is 161%. Also, the “GR relative molar binding affinity (RBA)” value at Glucocorticoid receptor is given as 25%.
Taken in the same sequence, the figures for `CC12CC(c3ccc(C=NO)cc3)C3=C4CCC(=O)C=C4CCC3C1CCC2(O)CBr` (stereo not drawn) [Example 10, 4-(17α-Bromomethyl-17β-hydroxy-3-oxoestra-4,9-dien-11β-yl)benzaldehyde-1(E)-oxime] were “a) 0.6%”, “b) 0.9%”, 21% and 3%.
Consider `CCNC(=O)O/N=C/c1ccc([C@H]2C[C@]3(C)[C@@H](O)CC[C@H]3[C@@H]3CCC4=CC(=O)CCC4=C32)cc1` [Example 11, 4-[17β-Hydroxy-3-oxoestra-4,9-dien-11β-yl]benzaldehyde-1-(E)-[O-(ethylamino)-carbonyl]oxime], for which, at Androgen receptor, the “AR relative molar binding affinity (RBA) a) against RU 1881” value is recorded as “a) 10%” and the “AR relative molar binding affinity … (DHT)” value was “b) 15%”. The “PR relative molar binding affinity (RBA)” value on Progesterone receptor is 34%. In addition, the “GR relative molar binding affinity (RBA)” value on Glucocorticoid receptor came to 10%.
The corresponding values for `CC12CC(c3ccc(C=NO)cc3)C3=C4CCC(=O)C=C4CCC3C1C=CC2O` (stereo not drawn) [Example 12, 4-(17β-Hydroxy-3-oxoestra-4,9,15-trien-11β-yl)benzaldehyde-1(E)-oxime] are “a) 22%”, “b) 34%”, 38% and 5%.
The corresponding values for `CC(=O)O[C@H]1CC[C@H]2[C@@H]3CCC4=C(Br)C(=O)CCC4=C3[C@@H](c3ccc(/C=N/O)cc3)C[C@]12C` [Example 13, 4-(17β-Acetoxy-4′-bromo-3-oxoestra-4,9-dien-11β-yl)benzaldehyde-1-(E)oxime] are “a) 6%”, “b) 10%”, 45% and 0.35%.
Turning to `CC(=O)O/N=C/c1ccc([C@H]2C[C@]3(C)[C@@H](OC(C)=O)CC[C@H]3[C@@H]3CCC4=C(Br)C(=O)CCC4=C32)cc1` [Example 14, 4-(17β-Acetoxy-4′-bromo-3-oxoestra-4,9-dien-11β-yl)benzaldehyde-1-(E)-O-acetyloxime], at Androgen receptor, the “AR relative molar binding affinity (RBA) a) against RU 1881” value is given as “a) 6%” and the “AR relative molar binding affinity … (DHT)” value is given as “b) 10%”. Further, at Progesterone receptor, the “PR relative molar binding affinity (RBA)” value is reported as 23%. Further, the “GR relative molar binding affinity (RBA)” value on Glucocorticoid receptor is 0.3%.
